From ChEMBL document CHEMBL5030545, “Discovery of clinical candidate Sivopixant (S-600918): Lead optimization of dioxotriazine derivatives as selective P2X3 receptor antagonists” (Bioorg Med Chem Lett, 2021) come the findings set out here.

The nature of data set [1]: Ratio of free plasma concentration in rat measured after 3 hrs to IC50 of P2X3 (unknown origin). It counts as ADME.
A further data set relates to Rattus norvegicus. Put plainly: Analgesic activity in rat model of partial sciatic nerve ligation-induced neuropathic pain assessed as reversal of allodynia at 3 mg/kg, po measured after 3 hrs relative to control. Format: functional.
Data set [2] is described as follows: Ratio of plasma concentration in rat measured after 3 hrs to IC50 of P2X3 (unknown origin). It counts as ADME. Particulars: in vivo.
Data set [3] is described as follows: Oral bioavailability in rat at 1 mg/kg administered as cassette dose. It counts as ADME, organism-based. To be noted: in vivo.
Data set [4] can be described thus: Free plasma concentration in rat plasma at 1 mg/kg administered as cassette dose. Format: ADME, organism-based. To be noted: in vivo.
A short description of data set [5]: Protein binding in rat plasma assessed as unbound fraction at 1 mg/kg administered as cassette dose. It counts as ADME, organism-based.
The target of a further data set is T1, P2X purinoceptor 3 (Homo sapiens, UniProt P56373).
T1 sequence (P56373 whole entry): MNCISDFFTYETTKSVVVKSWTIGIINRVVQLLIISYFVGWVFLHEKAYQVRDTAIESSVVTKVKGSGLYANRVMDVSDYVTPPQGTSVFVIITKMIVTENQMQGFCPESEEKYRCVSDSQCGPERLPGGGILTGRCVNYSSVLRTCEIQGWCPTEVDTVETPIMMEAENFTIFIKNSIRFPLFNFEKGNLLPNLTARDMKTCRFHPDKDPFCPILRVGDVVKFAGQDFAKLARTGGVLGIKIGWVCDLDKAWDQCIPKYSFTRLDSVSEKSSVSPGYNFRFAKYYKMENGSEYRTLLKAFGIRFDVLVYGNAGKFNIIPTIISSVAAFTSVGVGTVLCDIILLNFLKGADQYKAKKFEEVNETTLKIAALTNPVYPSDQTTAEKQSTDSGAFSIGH
Put plainly: Antagonist activity at P2X3 receptor (unknown origin).

SMILES strings stand for the structures.

As for `CC(C)Oc1ccc(/N=c2\[nH]c(=O)n(C[C@H](C)C(=O)O)c(=O)n2Cc2ccc(Cl)cc2)cc1`, the Ratio in data set [1] stood at 2.91; in data set [2], 42.8. Also, the Activity with Rattus norvegicus stood at 2%. In addition, the bioavailability in data set [3] was 88.8%. Besides, the “Cp(f)” value in data set [4] was 827 nM. Also, the fraction unbound (commonly free concentration divided by total concentration) in data set [5] came to 0.068.

Regarding `Cc1cc(/N=c2\[nH]c(=O)n(C[C@H](C)C(=O)O)c(=O)n2Cc2ccc(Cl)cc2)ccc1OC(C)C`, the Ratio in data set [1] came to 1.16; in data set [2], 57.8. Besides, the Activity in the data set on Rattus norvegicus was found to be 13%. Further, the bioavailability in data set [3] came out at 102%. In data set [4], the “Cp(f)” value was found to be 924 nM. For the same compound, the fraction unbound in data set [5] was determined as 0.02.

Consider `CC(C)Oc1ccc(/N=c2\[nH]c(=O)n(C[C@H](C)C(=O)O)c(=O)n2Cc2ccc(Cl)cc2)cc1Cl`, for which the Ratio in data set [1] worked out at 0.52; in data set [2], 171.8. For the same compound, in the data set with Rattus norvegicus, the Activity came to 26%. For the same compound, the bioavailability in data set [3] was found to be 82.4%. Also, the “Cp(f)” value in data set [4] came to 1537 nM. In addition, in data set [5], the fraction unbound was 0.003.

For the compound `CC(C)Oc1ccc(Nc2nc(=O)n(CCO)c(=O)n2Cc2ccc(Cl)cc2)cc1Cl`, the Ratio in data set [1] was 0.2; in data set [2], 204.9. The bioavailability in data set [3] came out at 48.1%. The “Cp(f)” value in data set [4] was determined as 3095 nM. Also, the fraction unbound in data set [5] was determined as 0.001.

On to `CC(C)Oc1ccc(/N=c2\[nH]c(=O)n(C[C@H](C)C(=O)O)c(=O)n2Cc2ccc(Cl)cc2)cc1F`, for which the results for the Ratio in data set [1] and in data set [2] were 1.31 and 145.2, respectively. For the same compound, the Activity in the data set with Rattus norvegicus came to 23%. Also, the IC50 (in general, the concentration at which inhibition is half-maximal) at P2X purinoceptor 3 stood at 7.8 nM. In data set [3], the bioavailability came out at 96%. In addition, the “Cp(f)” value in data set [4] is listed as 1126 nM. Besides, the fraction unbound in data set [5] turned out to be 0.009.

In the case of `CC(C)Oc1ccc(Nc2nc(=O)n(CC(CO)CO)c(=O)n2Cc2ccc(Cl)cc2)cc1Cl`, the values for the Ratio in data set [1] and in data set [2] were 0.27 and 89.2, respectively. The compound further gave an IC50 against P2X purinoceptor 3 of 6.7 nM. In data set [3], the bioavailability was found to be 54.8%. Besides, the “Cp(f)” value in data set [4] turned out to be 597 nM. Also, in data set [5], the fraction unbound came out at 0.003.

With `Cc1ccc(Cn2c(=O)n(C[C@H](C)C(=O)O)c(=O)[nH]/c2=N\c2ccc(OC(C)C)c(Cl)c2)cc1`, the results for the Ratio in data set [1] and in data set [2] were 1.38 and 98.9, respectively. For the same compound, in the data set on Rattus norvegicus, the Activity is 3%. Besides, the bioavailability in data set [3] is 73.1%. Also, the “Cp(f)” value in data set [4] came out at 692 nM. The fraction unbound in data set [5] was found to be 0.014.

`CC(C)Oc1ccc(/N=c2\[nH]c(=O)n(CCCC(=O)O)c(=O)n2Cc2ccc(Cl)cc2)cc1Cl`: the values for the Ratio in data set [1] and in data set [2] were 0.24 and 119.4, respectively. Moreover, in data set [3], the bioavailability was determined as 43.2%. Moreover, in data set [4], the “Cp(f)” value stood at 1600 nM. In data set [5], the fraction unbound is 0.002.

`CC(C)Oc1ccc(Nc2nc(=O)n(CCCO)c(=O)n2Cc2ccc(Cl)cc2)cc1Cl`: the figures for the Ratio in data set [1] and in data set [2] were 0.31 and 103.5, respectively. Moreover, the IC50 against P2X purinoceptor 3 worked out at 6.9 nM. For the same compound, in data set [3], the bioavailability amounted to 36.2%. Also, the “Cp(f)” value in data set [4] worked out at 711 nM. Also, in data set [5], the fraction unbound came to 0.003.

For the compound `CC(C)Oc1ccc(/N=c2\[nH]c(=O)n(CC(C)(C)C(=O)O)c(=O)n2Cc2ccc(Cl)cc2)cc1Cl`, the Ratio in data set [1] was determined as 0.22; in data set [2] it was 72.4. The IC50 against P2X purinoceptor 3 was 6.7 nM. Moreover, the bioavailability in data set [3] stood at 85.3%. Also, in data set [4], the “Cp(f)” value turned out to be 485 nM. Moreover, the fraction unbound in data set [5] was 0.003.

For `Cc1ccc(Cn2c(=O)n(CC(C)(C)C(=O)O)c(=O)[nH]/c2=N\c2ccc(OC(C)C)c(Cl)c2)cc1`, the Ratio in data set [1] worked out at 0.14; in data set [2], 14.2. For the same compound, the IC50 on P2X purinoceptor 3 was determined as 9.8 nM. For the same compound, in data set [3], the bioavailability worked out at 30.7%. Moreover, the “Cp(f)” value in data set [4] is reported as 139 nM. Further, the fraction unbound in data set [5] was 0.01.

`CC(C)Oc1ccc(Nc2nc(=O)n(CCC(=O)O)c(=O)n2Cc2ccc(Cl)cc2)cc1Cl`: the Activity with Rattus norvegicus turned out to be 6%. The bioavailability in data set [3] came out at 71.2%. Also, in data set [4], the “Cp(f)” value turned out to be 1267 nM. Moreover, the fraction unbound in data set [5] was 0.003.

With `Cc1ccc(Cn2c(=O)n(CCCC(=O)O)c(=O)[nH]/c2=N\c2ccc(OC(C)C)c(Cl)c2)cc1`, the Ratio is 0.59 in data set [1] and 294.8 in data set [2]. The Activity in the data set on Rattus norvegicus is recorded as 20%. For the same compound, the bioavailability in data set [3] came out at 108%. For the same compound, the “Cp(f)” value in data set [4] was found to be 3655 nM. The fraction unbound in data set [5] amounted to 0.002.

In the case of `CC(C)Oc1ccc(/N=c2\[nH]c(=O)n(C[C@@H](C)C(=O)O)c(=O)n2Cc2ccc(Cl)cc2)cc1Cl`, the Ratio in data set [1] is recorded as 0.12; in data set [2] it was 62.2. The bioavailability in data set [3] turned out to be 108%. Moreover, in data set [4], the “Cp(f)” value is given as 1001 nM. Further, the fraction unbound in data set [5] was 0.002.

Consider `C[C@@H](Cn1c(=O)[nH]/c(=N\c2ccc(Oc3cnccn3)cc2)n(Cc2ccc(Cl)cc2)c1=O)C(=O)O`, for which the Ratio in data set [1] is recorded as 1.02; in data set [2], 56.2. On P2X purinoceptor 3, this compound displayed an IC50 of 5.8 nM. Further, the bioavailability in data set [3] stood at 56.5%. The “Cp(f)” value in data set [4] worked out at 330 nM. Further, in data set [5], the fraction unbound was determined as 0.018.

As to `C[C@@H](Cn1c(=O)[nH]/c(=N\c2ccc(OC3CCC3)cc2)n(Cc2ccc(Cl)cc2)c1=O)C(=O)O`, the Ratio was determined as 0.46 in data set [1] and 30.4 in data set [2]. The bioavailability in data set [3] stood at 54.3%. Besides, the “Cp(f)” value in data set [4] was determined as 462 nM. Further, the fraction unbound in data set [5] was 0.015.

With `C[C@@H](Cn1c(=O)[nH]/c(=N\c2ccc(OCC3CC3)cc2)n(Cc2ccc(Cl)cc2)c1=O)C(=O)O`, the results for the Ratio in data set [1] and in data set [2] were 0.79 and 37.6, respectively. Also, in data set [3], the bioavailability came to 45.6%. For the same compound, in data set [4], the “Cp(f)” value came out at 643 nM. Also, in data set [5], the fraction unbound is 0.021.

Turning to `C[C@@H](Cn1c(=O)[nH]/c(=N\c2ccc(Oc3cccnc3)cc2)n(Cc2ccc(Cl)cc2)c1=O)C(=O)O`, at P2X purinoceptor 3, the concentration for half-maximal inhibition (IC50) turned out to be 8.6 nM.

For `C[C@@H](Cn1c(=O)[nH]/c(=N\c2ccc(Oc3ccc(F)cn3)cc2)n(Cc2ccc(Cl)cc2)c1=O)C(=O)O`, the bioavailability in data set [3] is 82.4%. In addition, in data set [4], the “Cp(f)” value came to 473 nM. The fraction unbound in data set [5] was 0.011.

As for `CC(C)COc1ccc(/N=c2\[nH]c(=O)n(C[C@H](C)C(=O)O)c(=O)n2Cc2ccc(Cl)cc2)cc1`, the Ratio in data set [1] is 0.29; in data set [2], 11.5. For the same compound, in data set [3], the bioavailability stood at 48.7%. The “Cp(f)” value in data set [4] is listed as 253 nM. For the same compound, the fraction unbound in data set [5] was 0.025.

Regarding `C[C@@H](Cn1c(=O)[nH]/c(=N\c2ccc(Oc3cccc(F)n3)cc2)n(Cc2ccc(Cl)cc2)c1=O)C(=O)O`, in data set [3], the bioavailability is 60%. For the same compound, the “Cp(f)” value in data set [4] is given as 456 nM. The fraction unbound in data set [5] came out at 0.007.

In the case of `CC(C)Oc1ccc(/N=c2\[nH]c(=O)n(C[C@@H](O)CO)c(=O)n2Cc2ccc(Cl)cc2)cc1Cl`, the Ratio came out at 0.28 in data set [1] and 284.5 in data set [2]. At P2X purinoceptor 3, this compound gave an IC50 of 5.7 nM. For the same compound, in data set [3], the bioavailability came to 63%. Besides, the “Cp(f)” value in data set [4] is given as 1627 nM. In addition, the fraction unbound in data set [5] was 0.001.

Compound `C[C@@H](Cn1c(=O)[nH]/c(=N\c2ccc(Oc3ccncc3)cc2)n(Cc2ccc(Cl)cc2)c1=O)C(=O)O` had an IC50 against P2X purinoceptor 3 of 5.2 nM.

Consider `CC.C[C@@H](Cn1c(=O)[nH]/c(=N\c2ccc(Oc3cc(F)ccn3)cc2)n(Cc2ccc(Cl)cc2)c1=O)C(=O)O`, for which the Ratio was found to be 0.2 in data set [1] and 48.9 in data set [2]. Besides, the midpoint of inhibition against P2X purinoceptor 3, the IC50, lay at 4.9 nM. In addition, the bioavailability in data set [3] is 40.2%. In data set [4], the “Cp(f)” value stood at 240 nM. The fraction unbound in data set [5] was found to be 0.004.

For `CC(C)Oc1ccc(/N=c2\[nH]c(=O)n(C[C@H](O)CO)c(=O)n2Cc2ccc(Cl)cc2)cc1Cl`, inhibition at P2X purinoceptor 3 was half-maximal at 10.4 nM (IC50).

`C[C@@H](Cn1c(=O)[nH]/c(=N\c2ccc(Oc3nccs3)cc2)n(Cc2ccc(Cl)cc2)c1=O)C(=O)O`: the bioavailability in data set [3] was determined as 41.4%. In addition, the “Cp(f)” value in data set [4] is on record as 319 nM. In data set [5], the fraction unbound worked out at 0.006.

Turning to `C[C@@H](Cn1c(=O)[nH]/c(=N\c2ccc(Oc3cncc(F)c3)cc2)n(Cc2ccc(Cl)cc2)c1=O)C(=O)O`, the bioavailability in data set [3] amounted to 74.3%. In data set [4], the “Cp(f)” value is on record as 529 nM. The fraction unbound in data set [5] came to 0.02.

For the compound `C[C@@H](Cn1c(=O)[nH]/c(=N\c2ccc(Oc3cccnn3)cc2)n(Cc2ccc(Cl)cc2)c1=O)C(=O)O`, the Ratio in data set [1] came out at 0.12; in data set [2], 8.3. This compound also gave an IC50 against P2X purinoceptor 3 of 7.7 nM. The bioavailability in data set [3] was 30.2%. The “Cp(f)” value in data set [4] turned out to be 64 nM. Further, the fraction unbound in data set [5] turned out to be 0.014.
